Laboratory results as given in patent publication US8252749B2, “Methods, kits, and compositions for generating new hair follicles and growing hair” (Follica, Inc., priority 2006, dated 2012).
“Also recorded” adds a separate entry of the source.

Legend:
[1] = test system: new HF formation by EDIHN in wounded skin; assay: whole-mount EDIHN assay after excisional wounding of mice; type: in vivo
Excerpt: Punch wound and excisional wound induction. The backs of 21-day-old mice were depilated as described for Example 1 and sterilized with alcohol, followed by 1% iodine solution. Punch wounds, 4 mm in diameter, were induced using a dermal biopsy punch, down to, but not through, the muscle fascia. Excisional wounds were full thickness and 1 cm in diameter; skin and panniculus carnosus was excised using fine surgical scissors.
Whole mounting and immunofluorescence. HF whole mounts were obtained by incubating fresh skin with EDTA (20 mM in PBS) at 37° C. overnight, then separating the epidermis and dermis. Epidermis was then fixed in 10% formalin for 10 min, room temperature (RT). Dermis was fixed in acetone overnight, RT. After rinsing with PBS, whole mounts were stained with antibodies for immunohistochemistry (schematically depicted in FIG. 12) and were imaged using a Leica confocal microscope.
21 day-old mice were wounded as described in previous Examples. Starting from day 11 after wounding, a time point corresponding to the point at which the wound had recently re-epithelialized, 10 mL of 1 mg/ml EGF was injected into the wound bed. EGF was injected once per day after this point for a total of 5 days. Three days later, the skin was collected, and whole-mount EDIHN assays were performed. […] In addition, whole mounts of control and treated skin were analyzed with anti-K17 antibody immunostaining. […] (FIGS. 25 C-D).
In an additional experiment, recombinant EGF (1 microgram (mcg)/microliter (mcl)) was injected at days 11, 13 and 15 after wounding. Skin was collected at 18 days after wounding and stained for K17 and alkaline phosphotase.
To determine the effect of administration of EGF receptor inhibitors on DIHN, the inhibitor AG1478 (150 μM in 10 μL volume) was administered as a single injection 11 days after incisional wounding (1 cm2) to the middle of the wound near the skin surface. […] Left panel: epidermis stained for K17, with three large hair follicles next to each other. Right panel: dermis stained for AP with large coalescing dermal papilla areas.

[2] = test system: hair re-growth in abraded areas; assay: hair re-growth after epidermal abrasion of mice; type: in vivo; conditions: epidermis of mice abraded, then recombinant EGF administered
Excerpt: Depilation and epidermal abrasion. Mice were anesthetized with an injection of sodium pentobarbital before the hair on the back was clipped and depilated with Nair (Carter-Wallace, New York, N.Y.), then epidermis was removed using a rotating felt wheel as described by Argyris T, J. Invest. Dermatol. 75: 360 (1980). After scrubbing with 70% ethanol and drying under an incandescent lamp, the basal and supra-basal layers in an area of 1.5 cm^2/cm of the inter-follicular epidermis were removed by careful abrasion with a felt wheel mounted on a Dremel Moto-tool (Racine, Wis.). After abrasion, the skin was shiny and smooth, and there was no blood. One day later, the abraded area was covered by a fibrin crust, which fell off after 3-7 days, exposing the newly regenerated epidermis. A group of control mice was sacrificed immediately after abrasion to confirm microscopically the complete removal of the interfollicular epidermis.
Hair-bearing regions of the epidermis of mice is abraded, as described in Example 1, then administering recombinant EGF, as described in Example 1.

Compound | HF formation as assessed by gross morphology ([1]; 21 day-old mice, 10 mL of 1 mg/ml EGF injected into wound bed once per day for 5 days from day 11 after wounding, skin collected three days later) | new HF formation, whole mounts with anti-K17 antibody immunostaining ([1]; 21 day-old mice, EGF injected into wound bed once per day for 5 days from day 11 after wounding, n=4 vs control n=2) | EDIHN, skin stained for K17 and alkaline phosphotase ([1]; recombinant EGF 1 mcg/mcl injected at days 11, 13 and 15 after wounding, skin collected at 18 days) | hair re-growth in the abraded areas [2] | generation of hair follicles (number and size) compared with control mice that were wounded only ([1]; 150 μM in 10 μL, single injection 11 days after excisional wounding (1 cm diameter), middle of the wound)
EGF: epidermal growth factor, recombinant, injected into the wound bed | prevented HF formation | no new HF formation; also recorded: inhibits HF formation | inhibited EDIHN | prevents hair re-growth | –
COc1cc2ncnc(Nc3cccc(Cl)c3)c2cc1OC [AG1478, reference compound] | – | – | – | – | more and larger hair follicles; also recorded: more and larger HF
